# “Also recorded” adds a separate entry of the source. Counter-ions that a name gives are not always drawn.
# Columns and labels:
# [1] = cited from earlier work
# band 3 [2] = experiment: orthovanadate-induced band 3 tyrosine phosphorylation in erythrocytes; assay type: cell-based, human; conditions: 10 uM, 1 hour, then 2 mM orthovanadate
# parasite in RBCs = experiment: microscopy of Giemsa stained blood smears of treated infected RBCs; assay type: cell-based
# Protocol: FIGS. 9A-9E are microscopy photographs of standard blood smears. Smears were prepared on glass slides, fixed with 100% methanol, and stained in 10% Giemsa modified stain diluted in PBS for 10 minutes at room temperature.
# FIGS. 10A-D are microscopy photographs of standard blood smears. Smears were prepared on glass slides, fixed with 100% methanol, and stained in 10% Giemsa modified stain diluted in PBS for 10 minutes at room temperature.
# FIGS. 11A-C are microscopy photographs of standard blood smears. Smears were prepared on glass slides, fixed with 100% methanol, and stained in 10% Giemsa modified stain diluted in PBS for 10 minutes at room temperature.
# malaria infected RBCs = experiment: ex vivo parasitemia in blood from malaria infected Vietnamese patients (PCR); assay type: cell-based, human; conditions: 48 hours of incubation, various concentrations
# [3] = cited from earlier work; remark: listed apart in the source
# [4] = tested on: P. falciparum Dd2-infected erythrocytes; experiment: parasitemia of synchronous P. falciparum Dd2 cultures
# [5] = tested on: P falciparum strain Palo Alto; experiment: parasitemia / re-infection in P. falciparum-infected RBC cultures; assay type: cell-based, Plasmodium falciparum; conditions: for parasitemia level as % of the initial level: added 24 hours after start of culture, 72 hours after treatment; for effect on level of parasitemia during second cycle (re-infection): all concentrations examined (0.1-10 μM); for effect on level of parasitemia during first parasite cycle: first 48 hours, inhibitor added 24 hours after start
# Protocol: Inhibition of Syk in RBCs. Infected and non-infected RBCs were treated with Syk kinase inhibitor 11 (FIG. 2) at different concentrations and at different times after the start of the cultures. Cultivation of P. falciparum-infected RBCs. Freshly drawn blood (Rh+) from healthy adults of both sexes was used following informed consent in all studies. […] To assess total parasitemia and the relative numbers of ring and trophozoite stage cells, slides were prepared from cultures at the indicated times and stained with Diff-Quik reagent prior to analysis. 1000 cells were then scored by microscopic analysis of the cell staining patterns. To evaluate the potential of Syk kinase inhibitors as a therapy for treating malaria, the effect of Syk kinase inhibitors on preventing re-infection of additional erythrocytes was evaluated. Based on the hypothesis that destabilization of the RBCM is beneficial to the parasite during egress, blocking RBCM destabilization by inhibiting Syk-mediated tyrosine phosphorylation of band 3 may result in a reduction in the spread of infected cells. To test this, erythrocyte cultures were infected with P. falciparum and then treated 24 hours later with the Syk kinase inhibitor (0, 0.1, 1, and 10 uM concentrations) (FIG. 2). In this set of experiments Syk kinase inhibitors have been added 24 hours after the start of the parasite cultures. Data are means of 2 or 4 experiments with standard deviations. The data presented represents the mean of two to four experiments. The level of parasitemia was then calculated at 24, 48, 72 and 96 hours after addition of the Syk kinase inhibitor. The efficiency of the Syk kinase inhibitor at different stages of the parasite development cycle was examined. […] Growth inhibition was calculated as a % re-invasion rate relative to untreated cultures. […] However, when infected cultures are treated at 24 hours after the initial infection, nearly 100% of parasite re-infection is inhibited. This time point was confirmed in a flow cytometric analysis where the number of merozoites released from isolated schizonts, were measured with or without Syk kinase inhibitor treatment. […] This is consistent with our proposed mechanism of the Syk kinase inhibitor blocking the necessary destabilization of the erythrocyte cell membrane required for egress. Inhibition of Syk in RBCs. Infected and non-infected RBCs were treated with Syk kinase inhibitor IV (FIG. 6) at different concentrations and at different times after the start of the cultures. Cultivation of P. falciparum-infected RBCs. Freshly drawn blood (Rh+) from healthy adults of both sexes was used following informed consent in all studies. […] To assess total parasitemia and the relative numbers of ring and trophozoite stage cells, slides were prepared from cultures at the indicated times and stained with Diff-Quik reagent prior to analysis, 1000 cells were then scored by microscopic analysis of the cell staining patterns. To test this, erythrocyte cultures were infected with P. falciparum and then treated 24 hours later with the Syk kinase inhibitor (0, 0.1, and 10 uM concentrations) (FIG. 6). The data presented represents the mean of two to four experiments. The level of parasitemia was then calculated at 24, 48, 72 and 96 hours after addition of the Syk kinase inhibitor.
# [6] = tested on: P. falciparum-infected RBCs; experiment: vesiculation (microparticle release) of infected RBCs; assay type: cell-based, human; conditions: 10 μM, added 12 hours after infection
# Protocol: Micro-vesicle Quantification. Infected and non-infected RBCs were washed 3× in RPMI 1640-HEPES medium and then resuspended at 10% hematocrit in the same medium containing a protease inhibitor cocktail (Sigma-Aldrich). […] Cells were then centrifuged at 2000×g to pellet the RBCs followed by a centrifugation step at 20,000×g for 10 minutes to pellet the RBC membranes. RBC vesicles present in the supernatant were labeled with anti-glycophorin A antibodies or with eosine-maleimide for labeling band 3, and quantified using a FACSCalibur cytometer (BD Biosciences) and the Cell Quest analysis software (BD Biosciences). Vesicles were selected using forward and side light scatter (FSC and SSC signals set to logarithmic amplification). A total of 40,000 events were analyzed. The amount of MPs released by infected RBCs was also measured. […] MPs were isolated from the supernatant by differential centrifugation (as in the INODs paper) and their amount was estimated measuring their band 3 content ([…] blots). Data are mean of 2 experiments with SD (in the second experiment we could measure only the ast times). […] To measure vesiculation, microparticles were isolated from the culture supernatants and quantified based on their band 3 content (determined by Western blotting) [Pantaleo, Free Radic Biol Med 2012, 52: 527-536].
# band 3 [7] = experiment: band 3 tyrosine phosphorylation in parasite cultures (Western blot); assay type: cell-based, human; conditions: 10 μM added at 12 hours; at 48 hours post infection
# Protocol: Immunoblot Analysis. […] The nitrocellulose membranes were then probed using either fluorescein-5'-maleimide (0.25 mg/ml) (Pierce) or anti-phosphotyrosine antibody (Santa Cruz, Calif.) and anti-Syk (Santa Cruz, Calif.) antibodies and with anti-band 3 (Sigma Aldrich). The blots were then analyzed using an 800 nm laser scanner (Odyssey, Licor, USA). […] In this set of experiments, Syk kinase inhibitors were added 12 hours after the start of the parasite cultures. The content of band 3 was measured by western blotting. The percent of band 3 phosphorylation was also measured. […] Band 3 phosphorylation levels have been normalized for the band 3 content ([…] blot). The expectation is that band 3 tyrosine phosphorylation would also be diminished in the Syk kinase inhibitor treated cultures. This is indeed the case. The % of band tyrosine phosphorylation was measured via Western blotting with an anti-phosphotyrosine antibody. […] The cultures were then normalized to the vandate induced level of phosphorylation. […] This is consistent with the hypothesis that just prior to egress the parasite would phosphorylate band 3, disrupt its interaction with ankyrin and result in a destabilized membrane that is more susceptible to breech as required during egress.
# [8] = tested on: artemisinin resistant parasites in malaria infected blood; experiment: ex vivo parasite growth in artemisinin resistant blood of patient 4 (PCR); assay type: cell-based, human
# Protocol: A blood sample was acquired from patient 4 prior to treatment with artemisinin and 13 day after treatment with artemisinin. […] These parasites are considered artemisinin resistant since there is a persistent parasitemia in the patient, even after artemisinin therapy.
# Upon arrival of each sample, malaria infected RBCs were separated from plasma and leukocytes by three washes in wash medium (RPMI 1640 medium containing 2 mM glutamine, 24 mM NaHCO, 25 mM Hepes, 20 mM glucose, and 32 mg/m gentamicin, pH 6.80).
# Smears of infected erythrocytes were obtained to assess initial parasitemia. Slides were fixed in 100% methanol and stained with 1/10 dilution of Giemsa solution, incubated for 10 min at room temperature, washed with water, dried, and observed under oil immersion lens (100×) for microscopic analysis. An aliquot was also saved for PCR analysis.
# Malaria infected erythrocytes were re-suspended at 2% hematocrit in growth medium consisting of RPMI 1640 supplemented with 2 mM glutamine, 24 mM NaHCO, 25 mM Hepes, 20 mM glucose, and […] gentamicin, pH 6.80 and 10% heat inactivated human serum. Infected blood was aliquoted into 96 well plates pretreated with Syk kinase inhibitor H and incubated at 37° C. in CO2 incubation bags. After 48 hours of incubation, the cultures were processed and analyzed by PCR.
smiles,measurement,setting,value
"Cc1ccc(NC(=O)c2ccc(CN3CCN(C)CC3)cc2)cc1Nc1nccc(-c2cccnc2)n1 [Imatinib mesylate, 4-[(4-Methyl-1-piperazinyl)methyl]-N-[4-methyl-3-[[4-(3-pyridinyl)-2-pyrimidinyl]amino]-phenyl]benzamide methanesulfonate]",band 3 tyrosine phosphorylation,band 3 [2],completely inhibited
same,parasite development in blood smears,"parasite in RBCs; 8 μM, up to 121 hour",able to delay the lifecycle of the parasite
same,parasite morphology in blood smears,"parasite in RBCs; 10 μM, listed as Gleevec, methanesulfonate","immature trophs from the first cycle that have not matured; also recorded: merozoites stuck or trapped inside the RBCs that cannot egress; also recorded: pyknotic parasites, or dead parasites in condensed form"
same,parasitemia of infected patient blood,malaria infected RBCs,effective at reducing the parasitemia
same,time post-dose at which Cmax is achieved,[3]; oral administration,2 to 4 h
same,parasitemia during the first cycle,"[4]; first 44 hours, added 20 hours after start",did not cause significant changes in parasitemia
same,re-infection at the second cycle,[4]; higher concentrations,fail to reinfect healthy erythrocytes
same,viability after 4 cycles of growth,[4]; higher concentrations,remain nonviable
same,effect on parasite cycles,[4]; starting at 8 μM,able to delay the cycles of the parasite
"NCCNc1ncc(C(N)=O)c(Nc2cccc(C(F)(F)F)c2)n1 [Syk kinase inhibitor II, 2-(2-Aminoethylamino)-4-(3-trifluoromethylanilino)-pyrimidine-5-carboxamide]",parasitemia level as % of the initial level,[5]; 1 μM,~80%
same,inhibition of parasite re-infection,"[5]; 1 μM, added at 40 and 48 hours post initial infection",little impact
same,parasitemia level as % of the initial level,[5]; 10 μM,~80%
same,inhibition at 1 µM,"[5]; Plasmodium falciparum, 1 μM, added 24 hours after the initial infection, read-out: inhibition of parasite re-infection",~100%
same,effect on level of parasitemia during second cycle (re-infection),[5],significantly dropped the level of parasitemia
same,effect on level of parasitemia during first parasite cycle,[5],no effect
same,effect when culture is treated prior to infection with normal merozoites,[5]; pre-treatment of new culture,no effect in blocking the parasitemia
same,inhibition of vesiculation vs untreated parasite cultures,[6],~50%
same,maximum level of tyrosine phosphorylated band 3 (relative to 2 mM vanadate),band 3 [7],~35%
same,parasitemia of infected patient blood,malaria infected RBCs,completely eliminating parasitemia
same,IC50,"[8]; Homo sapiens, sample pre-treatment, parasitemia 0.1%, read-out: IC50 Syk kinase inhibitor II",< 600 nM
same,elimination of parasites in malaria infected blood,[8]; pre- and post-artemisinin treatment,completely eliminate parasites
Cc1ccc(NC(=O)c2ccc(CN3CCNCC3)cc2)cc1Nc1nccc(-c2cccnc2)n1 [N-desmethyl derivative],plasma AUC of metabolite as % of the AUC for imatinib,[3]; humans,about 15%
same,elimination half-life,[3]; oral administration in healthy volunteers,~40 h
COc1ccc(-c2cc3nccn3c(NC3N=CC=CC3C(N)=O)n2)cc1OC (centres unmarked) [Syk kinase inhibitor IV],parasitemia level as % of the initial level,[5]; 10 μM,~80%
same,effect on level of parasitemia during second cycle (re-infection),[5],significantly dropped the level of parasitemia
same,effect on level of parasitemia during first parasite cycle,[5],did not cause changes of parasitemia
COc1ccc2c(c1)c(C=C1C(=O)Nc3ccc(S(N)(=O)=O)cc31)cn2CCCO [Compd 18],Solubility,[1],<0.1 mg·L
